Measurements from US7754767B2, “Method for treatment of premature ejaculation in humans” (Trinity Laboratories, Inc., priority 2002, dated 2010).
Values joined by “and” are separate entries in the source; they are usually repeats but may differ in a detail not shown here. Equal values may be shown once.

Legend:
[1] = Plasma concentrations of DM after oral DM with or without quinidine (HPLC); format: in vivo, human; conditions: blood sampled 10-12 hours later, per volunteer
Protocol: Five patients with a symptom of having premature ejaculation were orally administered 120 mg of DM, with no co-administration of quinidine. Between 10 and 12 hours later, blood was sampled, blood plasma was isolated by centrifugation, and the plasma was analyzed to determine the DM concentration using the HPLC method. During a different week, the same patients were orally administered 60 mg of DM (half the control dosage) and 150 mg of quinidine. Between 10 and 12 hours later, blood was sampled and the plasma was analyzed for DM using thebaine/HPLC. The results, in Table 1, indicate that quinidine causes a major increase in the concentration of DM in the blood plasma.

[2] = target: phosphodiesterase type 5 (PDE5) (Homo sapiens, UniProt O76074); conditions: in vitro; PDE5 vs PDE6; cited from earlier work
[3] = oral administration, Viagra formulation; cited from earlier work
[4] = target: cyclooxygenase-2 (COX-2) (Homo sapiens, UniProt P35354); conditions: cited from earlier work
Sequence of cyclooxygenase-2 (COX-2) (P35354 18-604, species assumed): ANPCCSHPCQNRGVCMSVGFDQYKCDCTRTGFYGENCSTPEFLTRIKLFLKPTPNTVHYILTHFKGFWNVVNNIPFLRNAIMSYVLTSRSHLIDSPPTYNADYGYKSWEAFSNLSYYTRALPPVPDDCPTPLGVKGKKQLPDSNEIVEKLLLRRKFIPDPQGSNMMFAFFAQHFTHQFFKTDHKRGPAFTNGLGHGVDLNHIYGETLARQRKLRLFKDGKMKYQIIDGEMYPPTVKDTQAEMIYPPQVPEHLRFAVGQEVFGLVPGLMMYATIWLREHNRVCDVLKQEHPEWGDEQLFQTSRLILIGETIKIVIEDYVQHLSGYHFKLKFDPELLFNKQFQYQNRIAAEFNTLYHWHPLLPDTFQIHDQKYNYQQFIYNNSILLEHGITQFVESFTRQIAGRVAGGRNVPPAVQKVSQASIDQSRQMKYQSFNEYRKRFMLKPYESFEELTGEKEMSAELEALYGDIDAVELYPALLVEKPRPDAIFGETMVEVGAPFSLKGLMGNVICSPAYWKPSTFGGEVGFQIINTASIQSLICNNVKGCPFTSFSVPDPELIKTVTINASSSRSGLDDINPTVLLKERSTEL

SMILES: COc1ccc2c(c1)[C@@]13CCCC[C@H]1[C@@H](C2)N(C)CC3 [DM, (+)-3-methoxy-N-methylmorphinan]
- PLASMA CONCENTRATION of DM ([1]; 60 mg DM + 150 mg quinidine oral): 34.2 ng/mL and 42.4 ng/mL and 30.2 ng/mL and 26.8 ng/mL and 10.2 ng/mL
- PLASMA CONCENTRATION of DM ([1]; 120 mg DM oral, quinidine 0 mg): 13.5 ng/mL and 15.4 ng/mL and <1 ng/mL (2×) and 5.7 ng/mL

SMILES: CCCc1nn(C)c2c(=O)[nH]c(-c3cc(S(=O)(=O)N4CCN(C)CC4)ccc3OCC)nc12 [sildenafil, 1-[[3-(6,7-dihydro-1-methyl-7-oxo-3-propyl-1H-pyrazolo[4,3-d]pyrimidin-5-yl)-4-ethoxyphenyl]sulfonyl]-4-methyl piperazine]
- potency for PDE5 compared to PDE6 [2]: about 10 fold
- absolute bioavailability [3]: about 40%

SMILES: CS(=O)(=O)c1ccc(C2=C(c3ccccc3)C(=O)OC2)cc1 [rofecoxib]
- specificity for inhibiting COX-2 (over COX-1) [4]: about 350 fold
